{
  "source": "BindingDB's records for patent US11752138",
  "about": "(Vanderbilt University, 2023)",
  "assay": "Inhibition of LDHB Activity",
  "method": "This example describes a human LDHB biochemical assay employed in the characterization of a compound of Formula I in an embodiment of the dislcosure.Test compounds were placed in a Greiner Bio-One (Monroe, N.C.) 1536-well black solid bottom assay plate. 200 mM Tris HCl, pH 7.4, 100 μM EDTA and 0.01% TWEEN-20 , final concentration, was used as the assay buffer. The LDHB reagent was 2 nM Human LDHB (Meridian Life Science, Inc., Memphis, Tenn.), final concentration, in assay buffer. The substrate reagent was 0.13 mM NADH and 0.16 mM sodium pyruvate, final concentration, in assay buffer. The resazurin/diaphorase coupling reagent was 0.037 mM resazurin and 0.133 mg/mL diaphorase, final concentration, in assay buffer.",
  "data": [
    {"smiles": "CC1CC=C(c2cc(-c3nn(-c4nc(C(=O)O)cs4)c(CC4CC4)c3Cc3ccc(S(N)(=O)=O)c(F)c3)ccc2F)CC1", "note": "(configuration not stated) [US11752138, Compound 101]", "values": [
      {"measurement": "IC50", "value": "< 0.1", "unit": "µM"}
    ]},
    {"smiles": "CC1CCCC=C1c1cc(-c2nn(-c3nc(C(=O)O)cs3)c(CC3CC3)c2Cc2ccc(S(N)(=O)=O)c(F)c2)ccc1F", "note": "(configuration not stated) [US11752138, Compound 103]", "values": [
      {"measurement": "IC50", "value": "< 0.1", "unit": "µM"}
    ]},
    {"smiles": "COC1CC=C(c2cc(-c3nn(-c4nc(C(=O)O)cs4)c(CC4CC4)c3Cc3ccc(S(N)(=O)=O)c(F)c3)ccc2F)CC1", "note": "(configuration not stated) [US11752138, Compound 104]", "values": [
      {"measurement": "IC50", "value": "< 0.1", "unit": "µM"}
    ]},
    {"smiles": "CC1(C)CC=C(c2cc(-c3nn(-c4nc(C(=O)O)cs4)c(CC4CC4)c3Cc3ccc(S(N)(=O)=O)c(F)c3)ccc2F)CC1", "note": "[US11752138, Compound 106]", "values": [
      {"measurement": "IC50", "value": "< 0.1", "unit": "µM"}
    ]},
    {"smiles": "Cc1ncc(C#Cc2cc(-c3nn(-c4nc(C(=O)O)cs4)c(CC4CC4)c3Cc3ccc(S(N)(=O)=O)c(F)c3)ccc2F)s1", "note": "[US11752138, Compound 111]", "values": [
      {"measurement": "IC50", "value": "< 0.1", "unit": "µM"}
    ]},
    {"smiles": "Cc1ccc(C#Cc2cccc(-c3nn(-c4nc(C(=O)O)cs4)c(CC4CC4)c3Cc3ccc(S(N)(=O)=O)c(F)c3)c2)s1", "note": "[US11752138, Compound 112]", "values": [
      {"measurement": "IC50", "value": "< 0.1", "unit": "µM"}
    ]},
    {"smiles": "Cc1ccc(C#Cc2cc(-c3nn(-c4nc(C(=O)O)cs4)c(CCC4CC4)c3Cc3ccc(S(N)(=O)=O)c(F)c3)ccc2F)s1", "note": "[US11752138, Compound 113]", "values": [
      {"measurement": "IC50", "value": "< 0.1", "unit": "µM"}
    ]},
    {"smiles": "Cc1cnc(C#Cc2cc(-c3nn(-c4nc(C(=O)O)cs4)c(CC4CC4)c3Cc3ccc(S(N)(=O)=O)c(F)c3)ccc2F)s1", "note": "[US11752138, Compound 114]", "values": [
      {"measurement": "IC50", "value": "< 0.1", "unit": "µM"}
    ]},
    {"smiles": "Cc1ccc(C#Cc2cccc(-c3nn(-c4nc(C(=O)O)cs4)c(CCC4CC4)c3Cc3ccc(S(N)(=O)=O)c(F)c3)c2)s1", "note": "[US11752138, Compound 115]", "values": [
      {"measurement": "IC50", "value": "< 0.1", "unit": "µM"}
    ]},
    {"smiles": "NS(=O)(=O)c1ccc(Cc2c(-c3cccc(C#Cc4ccc(Cl)s4)c3)nn(-c3nc(C(=O)O)cs3)c2CC2CC2)cc1F", "note": "[US11752138, Compound 118]", "values": [
      {"measurement": "IC50", "value": "< 0.1", "unit": "µM"}
    ]},
    {"smiles": "Cc1ccc(/C=C/c2cccc(-c3nn(-c4nc(C(=O)O)cs4)c(CC4CC4)c3Cc3ccc(S(N)(=O)=O)c(F)c3)c2)s1", "note": "[US11752138, Compound 119]", "values": [
      {"measurement": "IC50", "value": "< 0.1", "unit": "µM"}
    ]},
    {"smiles": "Cc1ccsc1C#Cc1cccc(-c2nn(-c3nc(C(=O)O)cs3)c(CC3CC3)c2Cc2ccc(S(N)(=O)=O)c(F)c2)c1", "note": "[US11752138, Compound 120]", "values": [
      {"measurement": "IC50", "value": "< 0.1", "unit": "µM"}
    ]},
    {"smiles": "NS(=O)(=O)c1ccc(Cc2c(-c3cccc(C#Cc4ccc(C(F)F)s4)c3)nn(-c3nc(C(=O)O)cs3)c2CC2CC2)cc1F", "note": "[US11752138, Compound 121]", "values": [
      {"measurement": "IC50", "value": "< 0.1", "unit": "µM"}
    ]},
    {"smiles": "Cc1cnc(C#Cc2cccc(-c3nn(-c4nc(C(=O)O)cs4)c(CC4CC4)c3Cc3ccc(S(N)(=O)=O)c(F)c3)c2)o1", "note": "[US11752138, Compound 122]", "values": [
      {"measurement": "IC50", "value": "< 0.1", "unit": "µM"}
    ]},
    {"smiles": "Cc1ccc(C#Cc2cccc(-c3nn(-c4nc(C(=O)O)cs4)c(CC4(C)CC4)c3Cc3ccc(S(N)(=O)=O)c(F)c3)c2)s1", "note": "[US11752138, Compound 123]", "values": [
      {"measurement": "IC50", "value": "< 0.1", "unit": "µM"}
    ]},
    {"smiles": "Cc1cc(C)c(C#Cc2cccc(-c3nn(-c4nc(C(=O)O)cs4)c(CC4CC4)c3Cc3ccc(S(N)(=O)=O)c(F)c3)c2)s1", "note": "[US11752138, Compound 125]", "values": [
      {"measurement": "IC50", "value": "< 0.1", "unit": "µM"}
    ]},
    {"smiles": "Cc1ccc(C#Cc2cccc(-c3nn(-c4nc(C(=O)O)cs4)c(CC4CC4)c3Cc3ccc(S(N)(=O)=O)c(F)c3)c2)o1", "note": "[US11752138, Compound 129]", "values": [
      {"measurement": "IC50", "value": "< 0.1", "unit": "µM"}
    ]},
    {"smiles": "Cc1ccc(C2CC2c2cccc(-c3nn(-c4nc(C(=O)O)cs4)c(CC4CC4)c3Cc3ccc(S(N)(=O)=O)c(F)c3)c2)s1", "note": "(configuration not stated) [US11752138, Compound 130]", "values": [
      {"measurement": "IC50", "value": "< 0.1", "unit": "µM"}
    ]},
    {"smiles": "Cc1ccc(-c2cc(-c3nn(-c4nc(C(=O)O)cs4)c(CC4CC4)c3Cc3ccc(S(N)(=O)=O)c(F)c3)ccc2F)cc1F", "note": "[US11752138, Compound 137]", "values": [
      {"measurement": "IC50", "value": "< 0.1", "unit": "µM"}
    ]},
    {"smiles": "CC(=O)c1cc(-c2nn(-c3nc(C(=O)O)cs3)c(CC3CC3)c2Cc2ccc(S(N)(=O)=O)c(F)c2)ccc1F", "note": "[US11752138, Compound 140]", "values": [
      {"measurement": "IC50", "value": "< 0.1", "unit": "µM"}
    ]},
    {"smiles": "COc1ccc(-c2cc(-c3nn(-c4nc(C(=O)O)cs4)c(CC4CC4)c3Cc3ccc(S(N)(=O)=O)c(F)c3)ccc2F)cc1C", "note": "[US11752138, Compound 150]", "values": [
      {"measurement": "IC50", "value": "< 0.1", "unit": "µM"}
    ]},
    {"smiles": "NS(=O)(=O)c1ccc(Cc2c(-c3ccc(F)c(NC(=O)c4ccccc4)c3)nn(-c3nc(C(=O)O)cs3)c2CC2CC2)cc1F", "note": "[US11752138, Compound 152]", "values": [
      {"measurement": "IC50", "value": "< 0.1", "unit": "µM"}
    ]},
    {"smiles": "COc1cc(OC)cc(-c2cc(-c3nn(-c4nc(C(=O)O)cs4)c(CC4CC4)c3Cc3ccc(S(N)(=O)=O)c(F)c3)ccc2F)c1", "note": "[US11752138, Compound 153]", "values": [
      {"measurement": "IC50", "value": "< 0.1", "unit": "µM"}
    ]},
    {"smiles": "NS(=O)(=O)c1ccc(Cc2c(-c3ccc(F)c(-c4cc(F)cc(F)c4)c3)nn(-c3nc(C(=O)O)cs3)c2CC2CC2)cc1F", "note": "[US11752138, Compound 156]", "values": [
      {"measurement": "IC50", "value": "< 0.1", "unit": "µM"}
    ]},
    {"smiles": "CC(C)N1CC2(CN(c3cc(-c4nn(-c5nc(C(=O)O)cs5)c(CC5CC5)c4Cc4ccc(S(N)(=O)=O)c(F)c4)ccc3F)C2)C1", "note": "[US11752138, Compound 158]", "values": [
      {"measurement": "IC50", "value": "< 0.1", "unit": "µM"}
    ]},
    {"smiles": "NS(=O)(=O)c1ccc(Cc2c(-c3ccc(F)c(-c4ncc[nH]4)c3)nn(-c3nc(C(=O)O)cs3)c2CC2CC2)cc1F", "note": "[US11752138, Compound 159]", "values": [
      {"measurement": "IC50", "value": "< 0.1", "unit": "µM"}
    ]},
    {"smiles": "Cc1ncc(-c2cc(-c3nn(-c4nc(C(=O)O)cs4)c(CC4CC4)c3Cc3ccc(S(N)(=O)=O)c(F)c3)ccc2F)[nH]1", "note": "[US11752138, Compound 161]", "values": [
      {"measurement": "IC50", "value": "< 0.1", "unit": "µM"}
    ]},
    {"smiles": "NS(=O)(=O)c1ccc(Cc2c(-c3cccc(-c4ccc(Cl)c(F)c4)c3)nn(-c3nc(C(=O)O)cs3)c2CC2CC2)cc1F", "note": "[US11752138, Compound 164]", "values": [
      {"measurement": "IC50", "value": "< 0.1", "unit": "µM"}
    ]},
    {"smiles": "COc1ccc(-c2cccc(-c3nn(-c4nc(C(=O)O)cs4)c(CC4CC4)c3Cc3ccc(S(N)(=O)=O)c(F)c3)c2)cc1C", "note": "[US11752138, Compound 165]", "values": [
      {"measurement": "IC50", "value": "< 0.1", "unit": "µM"}
    ]},
    {"smiles": "NS(=O)(=O)c1ccc(Cc2c(-c3cccc(-c4ccc(Cl)cc4)c3)nn(-c3nc(C(=O)O)cs3)c2CC2CC2)cc1F", "note": "[US11752138, Compound 166]", "values": [
      {"measurement": "IC50", "value": "< 0.1", "unit": "µM"}
    ]},
    {"smiles": "Cc1ccc(-c2cccc(-c3nn(-c4nc(C(=O)O)cs4)c(CC4CC4)c3Cc3ccc(S(N)(=O)=O)c(F)c3)c2)cc1F", "note": "[US11752138, Compound 167]", "values": [
      {"measurement": "IC50", "value": "< 0.1", "unit": "µM"}
    ]},
    {"smiles": "CC(C)c1ccc(-c2cccc(-c3nn(-c4nc(C(=O)O)cs4)c(CC4CC4)c3Cc3ccc(S(N)(=O)=O)c(F)c3)c2)cc1", "note": "[US11752138, Compound 169]", "values": [
      {"measurement": "IC50", "value": "< 0.1", "unit": "µM"}
    ]},
    {"smiles": "CC(C)c1cccc(-c2cccc(-c3nn(-c4nc(C(=O)O)cs4)c(CC4CC4)c3Cc3ccc(S(N)(=O)=O)c(F)c3)c2)c1", "note": "[US11752138, Compound 173]", "values": [
      {"measurement": "IC50", "value": "< 0.1", "unit": "µM"}
    ]},
    {"smiles": "NS(=O)(=O)c1ccc(Cc2c(-c3cccc(-c4cccc(Cl)c4)c3)nn(-c3nc(C(=O)O)cs3)c2CC2CC2)cc1F", "note": "[US11752138, Compound 175]", "values": [
      {"measurement": "IC50", "value": "< 0.1", "unit": "µM"}
    ]},
    {"smiles": "N#Cc1ccc(-c2cccc(-c3nn(-c4nc(C(=O)O)cs4)c(CC4CC4)c3Cc3ccc(S(N)(=O)=O)c(F)c3)c2)cc1", "note": "[US11752138, Compound 176]", "values": [
      {"measurement": "IC50", "value": "< 0.1", "unit": "µM"}
    ]},
    {"smiles": "CN(C)c1ccc(-c2cccc(-c3nn(-c4nc(C(=O)O)cs4)c(CC4CC4)c3Cc3ccc(S(N)(=O)=O)c(F)c3)c2)cc1", "note": "[US11752138, Compound 178]", "values": [
      {"measurement": "IC50", "value": "< 0.1", "unit": "µM"}
    ]},
    {"smiles": "Cc1ccc(C#Cc2cc(-c3nn(-c4nc(C(=O)O)cs4)c(CC4CC4)c3Cc3ccc(S(N)(=O)=O)c(F)c3)ccc2F)s1", "note": "[US11752138, Compound 249]", "values": [
      {"measurement": "IC50", "value": "< 0.1", "unit": "µM"}
    ]}
  ]
}
